Measured values as given in patent publication US6528494B2 (priority 1996, dated 2003).
Where a name gives a salt, the structure may show the parent alone.

What was measured:
Assay type in all cases: cell-based
adenosine 1 receptor = biological target: T1, adenosine 1 receptor (Homo sapiens, UniProt P30542); test: Agonist activity against adenosine 1 receptor (CHO cells, forskolin-enhanced cAMP/SPAP reporter); details: CHO cells transfected with human receptor; forskolin-enhanced cAMP via SPAP; mean of all the versions tested
T1 sequence (P30542 1-326): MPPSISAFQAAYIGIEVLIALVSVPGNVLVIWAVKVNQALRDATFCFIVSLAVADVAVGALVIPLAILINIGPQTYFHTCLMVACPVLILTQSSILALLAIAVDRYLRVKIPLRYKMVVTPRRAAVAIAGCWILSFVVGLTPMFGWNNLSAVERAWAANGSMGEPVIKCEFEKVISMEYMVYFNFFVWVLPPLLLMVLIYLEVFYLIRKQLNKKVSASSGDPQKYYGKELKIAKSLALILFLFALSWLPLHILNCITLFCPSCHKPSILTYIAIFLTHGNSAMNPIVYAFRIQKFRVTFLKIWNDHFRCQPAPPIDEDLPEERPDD
Method: (§1) (1) Agonist activity against adenosine 2a, adenosine 1 and adenosine 3 receptor subtypes.
(§2) The effect of test compounds was determined by their effects on basal levels of cAMP (A2a) or on forskolin-enhanced cAMP (A1 and A3) as reflected by changes in levels of SPAP.

adenosine 2a receptor = adenosine 2a receptor (Homo sapiens, UniProt P29274); test: Agonist activity against adenosine 2a receptor (CHO cells, cAMP/SPAP reporter); details: CHO cells transfected with human receptor; basal cAMP via SPAP; mean of all the versions tested
Method: as §1, §2

adenosine 3 receptor = biological target: T2, adenosine 3 receptor (Homo sapiens, UniProt P0DMS8); test: Agonist activity against adenosine 3 receptor (CHO cells, forskolin-enhanced cAMP/SPAP reporter); details: CHO cells transfected with human receptor; forskolin-enhanced cAMP via SPAP; mean of all the versions tested
T2 sequence (P0DMS8 1-318): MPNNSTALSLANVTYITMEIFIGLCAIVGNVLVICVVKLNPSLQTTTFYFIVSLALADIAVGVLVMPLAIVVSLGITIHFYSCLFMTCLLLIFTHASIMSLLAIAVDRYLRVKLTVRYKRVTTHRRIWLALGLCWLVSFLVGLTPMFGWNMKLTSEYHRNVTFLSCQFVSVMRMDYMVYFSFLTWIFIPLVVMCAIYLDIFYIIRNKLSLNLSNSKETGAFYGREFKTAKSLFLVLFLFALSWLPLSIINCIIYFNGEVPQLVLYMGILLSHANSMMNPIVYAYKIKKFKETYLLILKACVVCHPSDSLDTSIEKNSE
Method: as §1, §2

Chain of adenosine 2a receptor (P29274 whole entry): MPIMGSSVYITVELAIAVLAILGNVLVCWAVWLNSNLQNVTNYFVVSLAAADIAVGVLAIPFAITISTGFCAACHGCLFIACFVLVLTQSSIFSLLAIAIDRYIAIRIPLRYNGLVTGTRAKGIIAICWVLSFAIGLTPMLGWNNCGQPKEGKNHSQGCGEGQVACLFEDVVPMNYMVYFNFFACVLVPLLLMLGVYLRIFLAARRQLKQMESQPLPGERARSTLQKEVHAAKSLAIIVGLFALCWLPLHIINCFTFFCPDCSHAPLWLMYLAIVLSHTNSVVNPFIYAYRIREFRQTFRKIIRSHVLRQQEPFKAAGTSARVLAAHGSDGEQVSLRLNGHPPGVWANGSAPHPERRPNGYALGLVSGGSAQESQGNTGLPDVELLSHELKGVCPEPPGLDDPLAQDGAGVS

| Compound | A1 EC50 as a ratio of that of NECA (adenosine 1 receptor) | A2a EC50 as a ratio of that of NECA (adenosine 2a receptor) | A3 EC50 as a ratio of that of NECA (adenosine 3 receptor) |
| --- | --- | --- | --- |
| CCC(CC)Nc1nc(NC2CCN(Cc3ccccc3)C2)nc2c1ncn2C1OC(c2nnn(CC)n2)C(O)C1O.O=CO.O=CO [Example 65, (2R,3R,4S,5R)-2-[2-(1-Benzyl-pyrrolidin-3-ylamino)-6-(1-ethyl-propylamino)-purin-9-yl]-5-(2-ethyl-2H-tetrazol-5-yl)-tetrahydro-furan-3,4-diol bis(Formate)] | 61.50 | 2.46 | >158 |
| CCn1nnc([C@H]2O[C@@H](n3cnc4c(NCCc5ccccc5)nc(NCCc5cn(C)cn5)nc43)[C@H](O)[C@@H]2O)n1.Cl.Cl [Example 4, (2R,3S,4R,5R)-2-(2-Ethyl-2H-tetrazol-5-yl)-5-{2-[2-(1-methyl-1H-imidazol-4-yl)-ethylamino]-6-phenethylamino-purin-9-yl}-tetrahydro-furan-3,4-diol Dihydrochloride] | 205.4 | 0.149 | >244 |
| CCn1nnc(C2OC(n3cnc4c(NCCc5ccccc5)nc(NC(CO)Cc5ccccc5)nc43)C(O)C2O)n1 [Example 79, (2R,3S,4R,5R)-2-(2-Ethyl-2H-tetrazol-5-yl)-5-[2-(1S-hydroxymethyl-2-phenyl-ethylamino)-6-phenethylamino-purin-9-yl]-tetrahydro-furan-3,4-diol Formate] | 165.30 | 2.40 | >155 |
| CC(C)n1nnc(C2OC(n3cnc4c(NC5CCCC5)nc(NCCN5CCCCC5)nc43)C(O)C2O)n1 [Example 80, (2R,3R,4S,5R)-2-[6-Cyclopentylamino-2-(2-piperidin-1-yl-ethylamino)-purin-9-yl]-yl)-5-(2-isopropyl-2H-tetrazol-5-yl)-tetrahydro-furan-3,4-diol bis(Formate)] | 77.10 | 2.37 | >164 |
| CCC(CC)Nc1nc(NCCN2CCCCC2)nc2c1ncn2C1OC(c2nnn(C(C)C)n2)C(O)C1O.O=CO.O=CO [Example 68, (2R,3R,4S,5R)-2-[6-(1-Ethyl-propylamino)-2-(2-piperidin-1-yl-ethylamino)-purin-9-yl]-5-(2-isopropyl-2H-tetrazol-5-yl)-tetrahydro-furan-3,4-diol bis(Formate)] | 56.20 | 3.50 | >331 |
| (2R,3R,4S,5R)-2-[2-(trans-4-Amino-cyclohexylamino)-6-cyclopentylamino-purin-9-yl]-5-(2-methyl-2H-tetrazol-5-yl)-tetrahydro-furan-3,4-diol Diformate [Example 92] | 253.70 | 1.24 | >192 |
| CCn1nnc([C@H]2O[C@@H](n3cnc4c(NCC(c5ccccc5)c5ccccc5)nc(NCCN5CCCCC5)nc43)[C@H](O)[C@@H]2O)n1.O=C(O)C(F)(F)F.O=C(O)C(F)(F)F [Example 46] | 64.00 | 1.37 | >216 |
| CCn1nnc([C@H]2O[C@@H](n3cnc4c(NCC(c5ccccc5)c5ccccc5)nc(NC5CCOCC5)nc43)[C@H](O)[C@@H]2O)n1.O=C(O)C(F)(F)F [Example 113, (2R, 3R,4S, 5R)-2-[6-(2,2-Diphenyl-ethylamino)-2-(tetrahydro-pyran-4-ylamino)-purin-9-yl]-5-(2-ethyl-2H-tetrazol-5-yl)-tetrahydro-furan-3,4-diol Trifluoroacetate] | 184.4 | 0.72 | >297.0 |
| CCn1nnc(C2OC(n3cnc4c(NCc5ccccc5)nc(NC(CO)Cc5ccccc5)nc43)C(O)C2O)n1 [Example 61, (2R,3R,4S,5R)-2-[6-Benzylamino-2-(1S-hydroxymethyl-2-phenyl-ethylamino)-purin-9-yl]-5-(2-ethyl-2H-tetrazol-5-yl)-tetrahydro-furan-3,4-diol Formate] | 323.00 | 9.20 | >150 |
| CC(C)n1nnc(C2OC(n3cnc4c(NC(CO)Cc5ccccc5)nc(NCCc5cn(C)cn5)nc43)C(O)C2O)n1 [Example 40, (2R,3R,4S,5R)-2-{6-(1S-Hydroxymethyl-2-phenyl-ethylamino)-2-[2-(1-methyl-1H-imidazol-4-yl)-ethylamino]-purin-9-yl}-5-(2-isopropyl-2H-tetrazol-5-yl)-tetrahydro-furan-3,4-diol Formate] | 22.1 | 0.31 | >232 |
| CCn1nnc(C2OC(n3cnc4c(NCCN5CCCCC5)nc(NC(CO)Cc5ccccc5)nc43)C(O)C2O)n1 [Example 69, (2R,3S,4R,5R)-2-(2-Ethyl-2H-tetrazol-5-yl)-5-[2-(1S-hydroxymethyl-2-phenyl-ethylamino)-6-(2-piperidin-1-yl-ethylamino)-purin-9-yl]-tetrahydro-furan-3,4-diol Formate] | 515.30 | 6.60 | >148 |
| Cn1nnc(C2OC(n3cnc4c(N)nc(NC(CO)Cc5ccccc5)nc43)C(O)C2O)n1 [Example 37, (2R,3R,4S,5R)-2-[6-Amino-2-(1S-hydroxymethyl-2-phenyl-ethylamino)-purin-9-yl]-5-(2-methyl-2H-tetrazol-5-yl)-tetrahydro-furan-3,4-diol Formate] | 119.1 | 0.52 | >348 |
| Cn1cnc(CCNc2nc(NCC(c3ccccc3)c3ccccc3)c3ncn([C@@H]4O[C@H](c5nnn(C)n5)[C@@H](O)[C@H]4O)c3n2)c1.O=CO [Example 27, (2R,3R,4S,5R)-2-{6-(2,2-Diphenyl-ethylamino)-2-[2-(1-methyl-1H-imidazol-4-yl)-ethylamino]-purin-9-yl}-5-(2-methyl-2H-tetrazol-5-yl)-tetrahydro-furan-3,4-diol Formate] | 449.7 | 0.08 | >286 |
| Cn1cnc(CCNc2nc(NCc3ccccc3)c3ncn([C@@H]4O[C@H](c5nnn(C)n5)[C@@H](O)[C@H]4O)c3n2)c1.O=CO [Example 30, (2R,3R,4S,5R)-2-{6-Benzylamino-2-[2-(1-methyl-1H-imidazol-4-yl)-ethylamino]-purin-9-yl}-5-(2-methyl-2H-tetrazol-5-yl)-tetrahydro-furan-3,4-diol Formate] | >7976 | 0.43 | >105 |
| CCn1nnc(C2OC(n3cnc4c(NCc5cccc(I)c5)nc(NC5CCNC5)nc43)C(O)C2O)n1 [Example 76, (2R,3S,4R,5R)-2-(2-Ethyl-2H-tetrazol-5-yl)-5-[6-(3-iodo-benzylamino)-2-(pyrrolidin-3S-ylamino)-purin-9-yl]-tetrahydro-furan-3,4-diol bis(Formate)] | 215.30 | 2.93 | >155 |
| CCn1nnc([C@H]2O[C@@H](n3cnc4c(NCC(c5ccccc5)c5ccccc5)nc(NCCN5CCOCC5)nc43)[C@H](O)[C@@H]2O)n1.O=C(O)C(F)(F)F.O=C(O)C(F)(F)F.O=C(O)C(F)(F)F [Example 44, (2R,3R,4S,5R)-2-[6-(2,2-Diphenyl-ethylamino)-2-(2-morpholin-4-yl-ethylamino)-purin-9-yl]-5-(2-ethyl-2H-tetrazol-5-yl)-tetrahydro-furan-3,4-diol tris(Trifluoroacetate)] | 44.11 | 3.25 | >546 |
| COc1ccc(CCNc2nc(N)c3ncn([C@@H]4O[C@H](c5nnn(C)n5)[C@@H](O)[C@H]4O)c3n2)cc1OC.O=CO [Example 38, (2R,3R,4S,5R)-2-{6-Amino-2-[2-(3,4-dimethoxy-phenyl)-ethylamino]-purin-9-yl}-5-(2-methyl-2H-tetrazol-5-yl)-tetrahydro-furan-3,4-diol Formate] | 946 | 0.13 | >315 |
